From US9550781B2, “Kinase modulating compounds, compositions containing the same and use thereof” (CENTAURUS BIOPHARMA CO., LTD., priority 2011, dated 2017)
pIC50: −log10 of the molar value.

Molecular target: recombinant B-RAF enzyme (Homo sapiens (Human), UniProt P15056)
Test: In vitro B-RAF Kinase Assay (HTRF), IC50 determination
Assay type: biochemical
Settings: 6HIS-Mek1 substrate, 60 min at 23° C.
Description: In vitro B-RAF Kinase Assay. To determine in vitro activities of recombinant B-RAF enzyme, a Homogeneous Time-Resolved Fluorescence (HTRF) assay was performed. […] Meanwhile, an Anti-6HIS-d2 antibody (Anti-6HIS-d2, Cisbio international) was added to detection system. When the two antibodies were close enough, energy, transfer was happened between Eu and d2, then activities of enzyme was determine by measuring fluorescence intensity (320 nm excitation, 665 nm emission).
IC50 determination. To evaluate in vitro potency of compounds against B-RAF enzyme, the IC50 values of compounds of this invention were determined. Compounds were 3-fold serially diluted with 100% DMSO from 1 mM, then 4 ml of compounds were transferred to 96 ml of reaction buffer (50 mM HEPES pH7.4, 10 mM MgCl2, 1 mM EGTA, 0.01% Tween-20, 0.005% BAS, 2 mM DTT). […] Then 2.5 ml of 4×ATP (2 mM) was added to the reaction system and initiated the reaction. The assay plate was incubated in an incubator for 60 min at 23° C., then the reaction was terminated by adding 5 ml of detection solution containing Eu3+ cryptate-labeled anti-phosphotyrosine PT66 antibody, and 5 ml of Anti-6HIS-d2 antibody. The plate was incubated for 1 h at 23° C. and the fluorescent signal was read with an EnVision multilable plate reader (PerkinElmer). IC50 values of compounds were generated using GraFit software (Version 6.0).

recombinant B-RAF enzyme, sequence (P15056 whole entry, species assumed): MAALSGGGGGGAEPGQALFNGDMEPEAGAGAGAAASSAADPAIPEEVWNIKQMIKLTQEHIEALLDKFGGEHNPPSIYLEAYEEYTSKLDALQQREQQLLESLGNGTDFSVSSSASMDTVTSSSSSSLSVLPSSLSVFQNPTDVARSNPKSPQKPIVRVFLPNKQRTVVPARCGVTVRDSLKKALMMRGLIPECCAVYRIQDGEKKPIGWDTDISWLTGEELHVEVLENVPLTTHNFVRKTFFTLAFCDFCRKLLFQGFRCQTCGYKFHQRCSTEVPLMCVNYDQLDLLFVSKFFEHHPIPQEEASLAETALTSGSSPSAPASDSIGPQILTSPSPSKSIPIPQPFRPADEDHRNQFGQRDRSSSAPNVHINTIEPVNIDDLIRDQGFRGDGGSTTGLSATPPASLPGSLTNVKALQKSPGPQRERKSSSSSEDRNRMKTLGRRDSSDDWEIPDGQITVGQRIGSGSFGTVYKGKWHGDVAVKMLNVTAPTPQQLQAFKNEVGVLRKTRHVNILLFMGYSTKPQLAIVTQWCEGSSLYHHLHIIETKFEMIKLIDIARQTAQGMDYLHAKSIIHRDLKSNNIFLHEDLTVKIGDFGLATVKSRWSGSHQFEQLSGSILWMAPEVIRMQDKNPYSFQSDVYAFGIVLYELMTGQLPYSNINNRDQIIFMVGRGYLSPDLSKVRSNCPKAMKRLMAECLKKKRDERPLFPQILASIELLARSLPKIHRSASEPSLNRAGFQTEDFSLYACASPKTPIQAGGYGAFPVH

SMILES | pIC50
CCCS(=O)(=O)Nc1ccc(F)c(Nc2ccccc2-c2ncnc3[nH]cnc23)c1F [Example 28, N-(3-(2-(9H-purin-6-yl)phenylamino)-2,4-difluorophenyl)propane-1-sulfonamide] | > 6.00
O=S(=O)(Nc1ccc(F)c(Nc2ncccc2-c2ncnc3[nH]cnc23)c1F)C1CC1c1ccccc1 (centres unmarked) [Example 21, N-(3-(3-(9H-purin-6-yl)pyridin-2-ylamino)-2,4-difluorophenyl)-2-phenylcyclopropane-1-sulfonamide] | > 6.30
CCCS(=O)(=O)Nc1ccc(F)c(Nc2ncccc2-c2ncnc3[nH]c(C)nc23)c1F [Example 3, N-(2,4-difluoro-3-(3-(8-methyl-9H-purin-6-yl)pyridin-2-ylamino)phenyl)propane-1-sulfonamide] | > 6.30
CCS(=O)(=O)Nc1ccc(F)c(Nc2ncccc2-c2ncnc3[nH]cnc23)c1F [Example 12, N-(3-(3-(9H-purin-6-yl)pyridin-2-ylamino)-2,4-difluorophenyl)ethanesulfonamide] | > 6.00
C=CS(=O)(=O)Nc1ccc(F)c(Nc2ncccc2-c2ncnc3[nH]cnc23)c1F [Example 20, N-(3-(3-(9H-purin-6-yl)pyridin-2-ylamino)-2,4-difluorophenyl)ethenesulfonamide] | > 6.30
CCCS(=O)(=O)Nc1ccc(F)c(Nc2ncccc2-c2ncnc3[nH]cnc23)c1F [Example 1, N-(3-(3-(9H-purin-6-yl)pyridin-2-ylamino)-2,4-difluorophenyl)propane-1-sulfonamide] | > 7.00
O=S(=O)(Nc1ccc(F)c(Nc2ncccc2-c2ncnc3[nH]cnc23)c1F)c1ccc(F)cc1 [Example 23, N-(3-(3-(9H-purin-6-yl)pyridin-2-ylamino)-2,4-difluorophenyl)-4-fluorobenzenesulfonamide] | > 6.00
COc1ccc(C2CC2S(=O)(=O)Nc2ccc(F)c(Nc3ncccc3-c3ncnc4[nH]cnc34)c2F)cc1 (centres unmarked) [Example 22, N-(3-(3-(9H-purin-6-yl)pyridin-2-ylamino)-2,4-difluorophenyl)-2-(4-methoxyphenyl)cyclopropane-1-sulfonamide] | > 6.00
O=S(=O)(Nc1ccc(F)c(Nc2ncccc2-c2ncnc3[nH]cnc23)c1F)c1ccc(Cl)cc1 [Example 17, N-(3-(3-(9H-purin-6-yl)pyridin-2-ylamino)-2,4-difluorophenyl)-4-chlorobenzenesulfonamide] | > 6.30
CCCS(=O)(=O)Nc1ccc(F)c(Nc2ncccc2-c2ncnc3[nH]ccc23)c1F [Example 26, N-(3-(3-(7H-pyrrolo[2,3-d]pyrimidin-4-yl)pyridin-2-ylamino)-2,4-difluorophenyl)propane-1-sulfonamide] | > 6.30
CCCS(=O)(=O)Nc1ccc(F)c(Nc2ncccc2-c2ncnc3[nH]ncc23)c1F [Example 25, N-(3-(3-(1H-pyrazolo[3,4-d]pyrimidin-4-yl)pyridin-2-ylamino)-2,4-difluorophenyl)propane-1-sulfonamide] | > 6.30
O=S(=O)(CCl)Nc1ccc(F)c(Nc2ncccc2-c2ncnc3[nH]cnc23)c1F [Example 11, N-(3-(3-(9H-purin-6-yl)pyridin-2-ylamino)-2,4-difluorophenyl)-1-chloromethanesulfonamide] | > 6.30
CS(=O)(=O)Nc1ccc(F)c(Nc2ncccc2-c2ncnc3[nH]cnc23)c1F [Example 13, N-(3-(3-(9H-purin-6-yl)pyridin-2-ylamino)-2,4-difluorophenyl)methanesulfonamide] | > 6.30
O=S(=O)(Nc1ccc(F)c(Nc2ncccc2-c2ncnc3[nH]cnc23)c1F)c1ccc(F)c(F)c1 [Example 14, N-(3-(3-(9H-purin-6-yl)pyridin-2-ylamino)-2,4-difluorophenyl)-3,4-difluorobenzenesulfonamide] | > 6.30
O=S(=O)(CC(F)(F)F)Nc1ccc(F)c(Nc2ncccc2-c2ncnc3[nH]cnc23)c1F [Example 19, N-(3-(3-(9H-purin-6-yl)pyridin-2-ylamino)-2,4-difluorophenyl)-2,2,2-trifluoromethanesulfonamide] | > 7.00
O=S(=O)(Nc1ccc(F)c(Nc2ncccc2-c2ncnc3[nH]cnc23)c1F)c1ccccc1 [Example 15, N-(3-(3-(9H-purin-6-yl)pyridin-2-ylamino)-2,4-difluorophenyl)benzenesulfonamide] | > 7.00

The next lines start with the values.

pIC50 | SMILES
> 7.00 | CCCS(=O)(=O)Nc1ccc(Cl)c(Nc2ncccc2-c2ncnc3[nH]cnc23)c1 [Example 5, N-(3-(3-(9H-purin-6-yl)pyridin-2-ylamino)-4-chlorophenyl)propane-1-sulfonamide]
> 7.00 | CCCS(=O)(=O)Nc1ccc(F)c(Nc2ncccc2-c2ncnc3[nH]cnc23)c1 [Example 4, N-(3-(3-(9H-purin-6-yl)pyridin-2-ylamino)-4-fluorophenyl)propane-1-sulfonamide]
> 7.00 | O=S(=O)(Nc1ccc(F)c(Nc2ncccc2-c2ncnc3[nH]cnc23)c1F)c1ccsc1 [Example 24, N-(3-(3-(9H-purin-6-yl)pyridin-2-ylamino)-2,4-difluorophenyl)thiophene-3-sulfonamide]
> 7.00 | O=S(=O)(CCCF)Nc1ccc(F)c(Nc2ncccc2-c2ncnc3[nH]cnc23)c1F [Example 10, N-(3-(3-(9H-purin-6-yl)pyridin-2-ylamino)-2,4-difluorophenyl)-3-fluoropropane-1-sulfonamide]
> 7.00 | CCCS(=O)(=O)Nc1ccc(C)c(Nc2ncccc2-c2ncnc3[nH]cnc23)c1 [Example 6, N-(3-(3-(9H-purin-6-yl)pyridin-2-ylamino)-4-methylphenyl)propane-1-sulfonamide]
> 7.00 | O=S(=O)(CCCF)Nc1ccc(Cl)c(Nc2ncccc2-c2ncnc3[nH]cnc23)c1F [Example 9, N-(3-(3-(9H-purin-6-yl)pyridin-2-ylamino)-4-chloro-2-fluorophenyl)-3-fluoropropane-1-sulfonamide]
> 7.00 | CCCS(=O)(=O)Nc1ccc(C)c(Nc2ccccc2-c2ncnc3[nH]cnc23)c1 [Example 27, N-(3-(2-(9H-purin-6-yl)phenylamino)-4-methylphenyl)propane-1-sulfonamide]
> 7.00 | CCCS(=O)(=O)Nc1ccc(Cl)c(Nc2ncccc2-c2ncnc3[nH]cnc23)c1F [Example 7, N-(3-(3-(9H-purin-6-yl)pyridin-2-ylamino)-4-chloro-2-fluorophenyl)propane-1-sulfonamide]
> 7.00 | O=S(=O)(CCC(F)(F)F)Nc1ccc(F)c(Nc2ncccc2-c2ncnc3[nH]cnc23)c1F [Example 18, N-(3-(3-(9H-purin-6-yl)pyridin-2-ylamino)-2,4-difluorophenyl)-3,3,3-trifluoropropane-1-sulfon amide]
> 7.00 | CCCS(=O)(=O)Nc1ccc(F)c(Nc2ncccc2-c2ncnc3[nH]cnc23)c1Cl [Example 8, N-(3-(3-(9H-purin-6-yl)pyridin-2-ylamino)-2-chloro-4-fluorophenyl)propane-1-sulfonamide]
